The source of these data is ChEMBL document CHEMBL5338706, “Discovery of a potent and selective proteolysis targeting chimera (PROTAC) degrader of NSD3 histone methyltransferase” (Eur J Med Chem, 2022).

Active and inactive are the calls of the source. The rule behind the calls is not given here.

Test [1] addresses T1, Histone-lysine N-methyltransferase NSD3 (Homo sapiens) (UniProt Q9BZ95).
T1 sequence (whole entry): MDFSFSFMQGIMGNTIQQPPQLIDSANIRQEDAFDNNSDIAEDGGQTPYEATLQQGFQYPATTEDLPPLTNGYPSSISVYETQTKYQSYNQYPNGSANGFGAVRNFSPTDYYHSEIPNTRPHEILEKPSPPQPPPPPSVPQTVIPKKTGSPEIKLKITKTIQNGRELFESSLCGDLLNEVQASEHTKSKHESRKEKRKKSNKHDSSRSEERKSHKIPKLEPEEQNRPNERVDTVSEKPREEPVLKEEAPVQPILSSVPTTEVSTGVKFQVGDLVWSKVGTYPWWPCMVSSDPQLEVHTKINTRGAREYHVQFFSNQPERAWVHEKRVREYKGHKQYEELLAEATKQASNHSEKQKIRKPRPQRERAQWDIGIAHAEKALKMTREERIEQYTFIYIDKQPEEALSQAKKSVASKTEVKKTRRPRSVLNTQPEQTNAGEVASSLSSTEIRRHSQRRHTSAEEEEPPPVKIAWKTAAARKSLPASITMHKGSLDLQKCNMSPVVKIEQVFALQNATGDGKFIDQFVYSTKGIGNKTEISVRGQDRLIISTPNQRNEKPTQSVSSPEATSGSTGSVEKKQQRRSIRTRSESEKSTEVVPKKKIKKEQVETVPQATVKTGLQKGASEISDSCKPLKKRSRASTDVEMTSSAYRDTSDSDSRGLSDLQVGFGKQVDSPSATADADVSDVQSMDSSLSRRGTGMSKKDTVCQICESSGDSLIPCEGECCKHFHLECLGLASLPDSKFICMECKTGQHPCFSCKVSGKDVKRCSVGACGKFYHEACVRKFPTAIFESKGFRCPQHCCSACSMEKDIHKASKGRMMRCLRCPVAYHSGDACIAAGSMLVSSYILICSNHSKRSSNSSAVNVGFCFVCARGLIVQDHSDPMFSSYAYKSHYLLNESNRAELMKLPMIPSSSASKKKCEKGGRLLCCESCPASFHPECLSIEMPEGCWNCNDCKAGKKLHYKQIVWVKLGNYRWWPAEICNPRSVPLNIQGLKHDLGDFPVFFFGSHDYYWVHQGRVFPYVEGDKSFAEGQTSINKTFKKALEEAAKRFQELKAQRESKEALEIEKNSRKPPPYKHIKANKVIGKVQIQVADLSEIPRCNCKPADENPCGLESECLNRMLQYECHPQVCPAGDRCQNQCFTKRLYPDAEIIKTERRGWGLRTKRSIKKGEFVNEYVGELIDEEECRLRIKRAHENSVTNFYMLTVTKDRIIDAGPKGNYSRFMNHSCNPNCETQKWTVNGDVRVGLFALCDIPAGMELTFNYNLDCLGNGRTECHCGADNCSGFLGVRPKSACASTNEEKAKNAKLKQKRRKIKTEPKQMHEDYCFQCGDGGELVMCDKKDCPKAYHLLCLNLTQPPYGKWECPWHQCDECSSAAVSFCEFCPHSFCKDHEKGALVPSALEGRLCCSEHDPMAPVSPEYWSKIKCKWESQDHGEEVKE
Briefly: (§1) Induction of NSD3 degradation in human NCI-H1703 cells incubated for 72 hrs by Western blot analysis. The class given is cell-based. To be noted: dose 0.001-5 µM. (In general: Immunoblotting shows a protein as a band on a membrane.)

For test [2], the target named is T2, Histone-lysine N-methyltransferase NSD3 (Homo sapiens, UniProt Q9BZ95).
T2 sequence (Q9BZ95 whole entry): T1 sequence (whole entry)
The test is described as §1. The format is cell-based.

The target of test [3] is T1, Histone-lysine N-methyltransferase NSD3 (Homo sapiens). Briefly: Induction of NSD3 degradation in human NCI-H1703 cells at 5 uM measured within 12 hrs by Western blot analysis. The class given is cell-based.
For test [4] the target is unchanged. Briefly: Induction of NSD3 degradation in human A549 cells assessed as reduction of NSD3 protein at 7.5 measured after 48 hrs by Western blot analysis. The format is cell-based.
The target is the same in test [5]. Briefly: Induction of NSD3 degradation in human NCI-H1703 cells at 0.001 to 10 uM by Western blot analysis. The class given is cell-based. To be noted: dose 0.001-10 µM, time <= 72.0 hrs, TDE = time-dependent effect.
The target is the same in test [6]. Kind of test: Induction of NSD3 degradation in human NCI-H1703 cells measured upto 72 hrs by Western blot analysis. The class given is cell-based. The conditions noted are these: dose 0.001-10 µM.
The target of test [7] is Histone-lysine N-methyltransferase, H3 lysine-36 specific (Homo sapiens) (UniProt Q96L73). Kind of test: Induction of NSD1 degradation in human NCI-H1703 cells at 3 to […] incubated for 72 hrs by Western blot analysis. The format is cell-based. The conditions noted are these: dose 3-7.5 µM.
Sequence of Histone-lysine N-methyltransferase, H3 lysine-36 specific (Homo sapiens) (Q96L73 whole entry): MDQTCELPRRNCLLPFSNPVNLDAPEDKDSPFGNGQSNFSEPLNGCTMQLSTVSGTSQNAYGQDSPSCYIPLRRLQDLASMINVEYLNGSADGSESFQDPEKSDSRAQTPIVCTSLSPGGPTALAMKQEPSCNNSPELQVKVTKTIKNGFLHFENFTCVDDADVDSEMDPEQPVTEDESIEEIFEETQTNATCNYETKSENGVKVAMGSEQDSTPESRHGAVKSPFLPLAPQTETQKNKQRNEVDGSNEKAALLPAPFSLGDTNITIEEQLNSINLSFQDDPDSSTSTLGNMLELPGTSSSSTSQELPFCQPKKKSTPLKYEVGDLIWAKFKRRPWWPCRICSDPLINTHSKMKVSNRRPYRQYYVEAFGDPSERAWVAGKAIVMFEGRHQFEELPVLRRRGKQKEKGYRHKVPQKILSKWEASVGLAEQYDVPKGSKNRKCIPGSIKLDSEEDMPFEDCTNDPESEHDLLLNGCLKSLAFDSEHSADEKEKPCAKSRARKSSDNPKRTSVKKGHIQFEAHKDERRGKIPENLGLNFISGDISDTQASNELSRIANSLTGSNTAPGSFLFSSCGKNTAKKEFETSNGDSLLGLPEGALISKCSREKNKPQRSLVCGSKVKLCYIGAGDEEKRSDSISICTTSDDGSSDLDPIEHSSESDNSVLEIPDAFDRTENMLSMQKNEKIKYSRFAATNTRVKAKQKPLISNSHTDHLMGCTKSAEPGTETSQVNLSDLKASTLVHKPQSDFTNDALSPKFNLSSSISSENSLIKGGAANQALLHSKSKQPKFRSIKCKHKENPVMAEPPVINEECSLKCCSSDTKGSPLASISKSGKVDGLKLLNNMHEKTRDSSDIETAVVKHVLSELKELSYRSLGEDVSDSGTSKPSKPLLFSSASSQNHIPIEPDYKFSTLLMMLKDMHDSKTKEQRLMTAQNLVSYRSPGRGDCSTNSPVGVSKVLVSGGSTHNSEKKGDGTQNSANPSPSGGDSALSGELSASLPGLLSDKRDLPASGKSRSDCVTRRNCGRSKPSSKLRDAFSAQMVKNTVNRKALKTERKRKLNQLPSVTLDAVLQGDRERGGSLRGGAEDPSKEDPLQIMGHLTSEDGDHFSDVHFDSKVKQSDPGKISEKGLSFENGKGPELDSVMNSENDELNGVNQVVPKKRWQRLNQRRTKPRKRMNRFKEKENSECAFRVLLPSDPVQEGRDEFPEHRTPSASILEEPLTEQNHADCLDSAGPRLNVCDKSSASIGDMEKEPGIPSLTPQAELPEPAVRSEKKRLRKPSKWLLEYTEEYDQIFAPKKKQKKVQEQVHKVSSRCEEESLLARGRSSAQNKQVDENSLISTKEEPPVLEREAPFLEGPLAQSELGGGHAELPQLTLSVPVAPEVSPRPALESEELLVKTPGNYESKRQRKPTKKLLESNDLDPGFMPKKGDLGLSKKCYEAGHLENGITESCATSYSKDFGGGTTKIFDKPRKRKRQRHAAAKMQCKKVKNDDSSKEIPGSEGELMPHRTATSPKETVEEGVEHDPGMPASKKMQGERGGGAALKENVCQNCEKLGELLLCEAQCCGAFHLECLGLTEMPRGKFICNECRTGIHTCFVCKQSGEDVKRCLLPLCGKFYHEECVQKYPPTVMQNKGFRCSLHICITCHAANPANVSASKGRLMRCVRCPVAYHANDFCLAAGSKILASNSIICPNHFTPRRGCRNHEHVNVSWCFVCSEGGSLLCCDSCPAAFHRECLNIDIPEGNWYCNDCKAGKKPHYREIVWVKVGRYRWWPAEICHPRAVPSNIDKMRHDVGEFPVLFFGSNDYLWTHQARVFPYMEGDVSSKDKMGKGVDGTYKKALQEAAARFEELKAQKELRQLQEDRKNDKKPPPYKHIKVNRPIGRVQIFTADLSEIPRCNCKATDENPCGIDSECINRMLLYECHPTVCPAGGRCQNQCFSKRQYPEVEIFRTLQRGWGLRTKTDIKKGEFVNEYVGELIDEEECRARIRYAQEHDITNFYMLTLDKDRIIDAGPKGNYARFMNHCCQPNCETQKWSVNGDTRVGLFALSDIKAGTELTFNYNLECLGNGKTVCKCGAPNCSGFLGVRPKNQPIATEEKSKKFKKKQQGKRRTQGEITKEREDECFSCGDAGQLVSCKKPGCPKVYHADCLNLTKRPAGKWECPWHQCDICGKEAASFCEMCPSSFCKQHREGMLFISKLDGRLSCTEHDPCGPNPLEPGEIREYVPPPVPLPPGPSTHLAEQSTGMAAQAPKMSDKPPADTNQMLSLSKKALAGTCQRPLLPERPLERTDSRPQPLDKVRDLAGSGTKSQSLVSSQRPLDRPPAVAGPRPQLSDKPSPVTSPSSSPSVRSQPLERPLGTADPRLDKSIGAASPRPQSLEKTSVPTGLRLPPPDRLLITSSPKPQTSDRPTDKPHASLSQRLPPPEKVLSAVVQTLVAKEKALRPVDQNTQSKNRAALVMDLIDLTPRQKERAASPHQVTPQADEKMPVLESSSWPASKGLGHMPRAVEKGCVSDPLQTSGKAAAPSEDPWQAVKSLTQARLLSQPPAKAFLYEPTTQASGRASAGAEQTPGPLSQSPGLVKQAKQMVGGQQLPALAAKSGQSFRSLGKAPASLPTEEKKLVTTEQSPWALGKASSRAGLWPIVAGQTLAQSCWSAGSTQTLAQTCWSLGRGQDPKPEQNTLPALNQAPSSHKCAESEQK
For test [8] the target is unchanged. Briefly: Induction of NSD1 degradation in human A549 cells at 5 to 10 uM incubated for 72 hrs by Western blot analysis. The class given is cell-based. The conditions noted are these: dose 5-10 µM.
The target of test [9] is T1, Histone-lysine N-methyltransferase NSD3 (Homo sapiens). Briefly: Induction of NSD3 degradation in human NCI-H1703 cells assessed as reduction in H3K36me3 methylation incubated for 72 hrs by Western blot analysis. The class given is cell-based. To be noted: dose 3-7.5 µM.
The test system of test [10] is NCI-H1703. Kind of test: Downregulation of ALDH1A1 in human NCI-H1703 cells at […] measured after 72 hrs by RNA sequencing assay. The format is functional, cell-based. The conditions noted are these: dose 7.5 µM.
In test [11] the test system is NCI-H520. Kind of test: Downregulation of CyclinD1 level in human NCI-H520 cells at 3 to […] by Western blot analysis. The conditions noted are these: dose 3-7.5 µM. The format is functional, cell-based.
The test system of test [12] is NCI-H1703. Briefly: Induction of apoptosis in human NCI-H1703 cells assessed as decrease in MCL-1 protein expression at 5 to 10 uM by Western blot analysis. The class given is functional, cell-based. To be noted: dose 5-10 µM.
For test [13], the system named is NCI-H1703. Briefly: Induction of apoptosis in human NCI-H1703 cells assessed as viable cells at 10 uM measured after 72 hrs by PI/Annexin-V staining based flow cytometry analysis (reference value: 92.7% ). The class given is functional. The conditions noted are these: read-out: Activity. (In general: Flow cytometry measures light scatter and fluorescence of single cells or particles in a stream.)

The subject of test [14] is NCI-H1703. Kind of test: Induction of apoptosis in human NCI-H1703 cells assessed as early apoptotic cells at 3 uM measured after 72 hrs by PI/Annexin-V staining based flow cytometry analysis (reference value: 1.47% ). The format is functional.
The subject of test [15] is NCI-H1703. Briefly: Induction of apoptosis in human NCI-H1703 cells assessed as early apoptotic cells at 5 uM measured after 72 hrs by PI/Annexin-V staining based flow cytometry analysis (reference value: 1.47% ). The format is functional.
In test [16] the test system is NCI-H1703. Briefly: Induction of apoptosis in human NCI-H1703 cells assessed as necrotic cells at […] measured after 72 hrs by PI/Annexin-V staining based flow cytometry analysis (reference value: 2.80% ). The format is functional. The conditions noted are these: dose 7.5 µM.
The test system of test [17] is NCI-H1703. Briefly: Antiproliferative activity against human NCI-H1703 cells incubated for 6 days by CCK-8 method. To be noted: NCI-H1703, 144 h. The class given is functional, cell-based. For orientation: Tetrazolium assays rely on reduction of a dye to a coloured formazan, in cell work by metabolically active cells.
In another test the test system is A549. Briefly: Antiproliferative activity against human A549 cells incubated for 3 days by CCK-8 method. The class given is functional, cell-based. To be noted: A549, 72 h.
Test [18] is described as follows: Downregulation of c-Myc level in human NCI-H520 cells at 3 uM by measuring fold change by Western blot analysis relative to control. The class given is functional.
Test [19] can be described thus: Downregulation of c-Myc level in human NCI-H520 cells at 5 uM by measuring fold change by Western blot analysis relative to control. The format is functional.
The subject of test [20] is NCI-H520. Briefly: Induction of apoptosis in human NCI-H520 cells assessed as decrease in Bcl-XL protein expression at 5 uM by measuring fold change by Western blot analysis relative to control. The class given is functional.

On to `Cc1cc(CNCCCCCCCCCCC(=O)N[C@H](C(=O)N2C[C@H](O)C[C@H]2C(=O)N[C@@H](C)c2ccc(-c3scnc3C)cc2)C(C)(C)C)cc(C)c1-c1ncn(C)c1-c1ccnc2cc(F)ccc12`, for which the Activity result in [1] is “Dose-Dependent Effect”; in test [5] it was “Tde”; in test [6], “Dose-Dependent Effect”; in test [9], “Dose-Dependent Effect”; with NCI-H1703 [14], 1.48%; in the test on NCI-H1703 [15] it was 7.5%. Besides, the Activity with NCI-H1703 [16] is recorded as 2.99%. The same molecule gave an EC50 in test [2] of 1.43 µM. Besides, the result (in [3]; in test [4]; with NCI-H1703 [10]; in the test on NCI-H520 [11]; in the test with NCI-H1703 [12]) was Active. The result in test [7] and in [8] was inactive. For the same molecule, the viability at 10 µM with NCI-H1703 [13] is 7.76%. Moreover, the results for the concentration for half-maximal inhibition (IC50) in the test with NCI-H1703 [17] and in the test with A549 were 2.74 µM and 5.49 µM, respectively. For the same molecule, the “fold change (FC)” value in test [18] is 1.03; in test [19] it was 0.97; with NCI-H520 [20] it was 1.1.

As usually defined, the EC50 is the midpoint of the concentration-response curve. What is called IC50 is the point on the concentration scale where inhibition reaches its midpoint. A lower IC50 goes with greater potency.
